Data reported in patent US11261201B2 (priority 2018, dated 2022).
In brackets after ≈: the same amount, converted by molar mass. Counter-ions that a name gives are not always drawn. Like-named read-outs stand apart in the source and are kept apart here.

Key:
A. baumannii = test: Gram negative MIC protocol (OD600, LB, 24 h); settings: Acinetobacter baumannii
Method: (§1) Overnight bacterial cultures were grown in LB with no added antibiotics at 37° C. with shaking. A 1:1000 dilution of these cultures into LB was exposed to concentration gradients of compounds in 96-well plates (100 μL per well assay volume). Resulting plates were incubated at 37° C. for 24 h without shaking, and OD600 was measured at the end of the incubation. MICs were determined as the lowest concentrations at which OD600 remained at baseline.

H37RvMA = test: Tuberculosis Alamar Blue/Resazurin assay (MIC); format: cell-based; settings: Mycobacterium tuberculosis, H37RV, read-out: WT H37Rv MTB Activity
E. coli = test: Gram negative MIC protocol (OD600, LB, 24 h); settings: Escherichia coli
Method: as §1

[1] = read-out: MIC A. baumannii LB Media, A. baumannii, LB media, 24 h, OD600
[2] = read-out: MIC E. coli delta-TolC LB Media, E. coli delta-TolC strain, LB media, 24 h, OD600
[3] = read-out: MIC WT E. coli LB Media, wild-type E. coli, LB media, 24 h, OD600
[4] = read-out: MIC E. coli delta-TolC LB Media, E. coli delta-TolC, LB media, OD600
[5] = read-out: MIC WT E. coli LB Media, WT E. coli, LB media, OD600
[6] = read-out: MIC A. baumannii LB Media

Compound | MIC (A. baumannii; [1]) | MIC (H37RvMA; WT H37Rv MTB) | MIC (E. coli; [2]) | MIC (E. coli; [3]) | MIC (E. coli; [4]) | MIC (E. coli; [5]) | MIC (A. baumannii; [6]) | MIC (H37RvMA) | MIC (E. coli; read-out: MIC E. coli delta-TolC LB Media) | MIC (E. coli; read-out: MIC WT E. coli LB Media)
OCc1cccc(CNCCC2CCCCC2)c1 [B375] | > 150 µM | > 150 µM | > 150 µM | > 150 µM |  |  |  |  |  | 
COC(=O)c1ccoc1COc1ccccc1CNC(C)CC1CCCCC1 (centres unmarked) [B267] | > 150 µM | 91 µM (≈ 35.1 µg/mL) | 7 µM (≈ 2.7 µg/mL) | > 150 µM |  |  |  |  |  | 
CC1CCCC(CCNCc2ccccc2)C1 (centres unmarked) [B179] | > 300 µM | 150 µM (≈ 34.7 µg/mL) |  |  | 230 µM (≈ 53.2 µg/mL) | > 300 µM |  |  |  | 
CC(CC1CC=CCC1)NCc1ccccc1 (centres unmarked) [B157, N-benzyl-1-(cyclohex-3-enyl)propan-2-amine] |  |  |  |  | 11 µM (≈ 2.52 µg/mL) | 20 µM (≈ 4.59 µg/mL) | 55 µM (≈ 12.6 µg/mL) | 91 µM (≈ 20.9 µg/mL) |  | 
c1ccc(CNCC2C3CCc4ccccc4C32)cc1 (centres unmarked) [B45] | > 150 µM | 91 µM (≈ 24 µg/mL) |  |  | > 150 µM | > 150 µM |  |  |  | 
Ic1cccc(CNCCC2CCCCC2)c1 [B348] | > 150 µM | 150 µM (≈ 51.5 µg/mL) | > 150 µM | > 150 µM |  |  |  |  |  | 
CC(NCc1ccccc1)C1[C@H]2C[C@@H]3C[C@@H](C[C@H]1C3)C2 (some centres unmarked) [B191] | 300 µM (≈ 80.8 µg/mL) | > 150 µM |  |  | 300 µM (≈ 80.8 µg/mL) | > 300 µM |  |  |  | 
C[C@@H](CC1=CCCCC1)NCc1ccccc1 [B171] |  |  |  |  | 19 µM (≈ 4.36 µg/mL) | 41 µM (≈ 9.4 µg/mL) | 110 µM (≈ 25.2 µg/mL) | > 150 µM |  | 
COC(=O)C1CCCCC1CCNCc1ccccc1 (centres unmarked) [B185] | > 300 µM | > 150 µM |  |  | > 300 µM | > 300 µM |  |  |  | 
O=C1OC(COc2ccccc2CNCCC2=CCCCC2)CN1C1CC1 (centres unmarked) [B370] | > 150 µM | > 150 µM | 12 µM (≈ 4.45 µg/mL) | > 150 µM |  |  |  |  |  | 
OB1OCc2cccc(CNCCC3CCCCC3)c21 [B339] | > 300 µM | > 150 µM | 200 µM (≈ 54.6 µg/mL) | > 300 µM |  |  |  |  |  | 
c1ccc(CNCCN2CCCC3CCCCC32)cc1 (centres unmarked) [B124] | > 150 µM | > 150 µM |  |  | > 150 µM | > 150 µM |  |  |  | 
CC1(c2ccc(F)cc2)N(Cc2ccccc2)C12CC2 (centres unmarked) [B98] | > 150 µM |  |  |  |  |  |  | > 150 µM | 150 µM (≈ 40.1 µg/mL) | > 150 µM
CC(CC1CCCCC1)NCc1ccccc1OCC(C)(C)O (centres unmarked) [B343] | 150 µM (≈ 47.9 µg/mL) | > 150 µM | 4 µM (≈ 1.28 µg/mL) | 150 µM (≈ 47.9 µg/mL) |  |  |  |  |  | 
c1ccc(CNCCN2CCCc3ccccc32)cc1 [B148] | > 150 µM | 150 µM (≈ 40 µg/mL) |  |  | > 150 µM | > 150 µM |  |  |  | 
Cc1nc(COc2ccccc2CNC(C)CC2CCCCC2)no1 (centres unmarked) [B334] | > 150 µM | > 150 µM | 7 µM (≈ 2.4 µg/mL) | > 150 µM |  |  |  |  |  | 
c1ccc(CNCCC2CCCNC2)cc1 (centres unmarked) [B224] | > 300 µM | > 150 µM | > 150 µM | > 300 µM |  |  |  |  |  | 
CC(CC1CCCCC1)NCc1ccccc1OCCC(C)(C)O (centres unmarked) [B275] | 91 µM (≈ 30.3 µg/mL) | > 150 µM | 4 µM (≈ 1.33 µg/mL) | 150 µM (≈ 50 µg/mL) |  |  |  |  |  | 
CC(CC1CCCCC1)NCc1ccccc1OCCOCCO (centres unmarked) [B274] | 150 µM (≈ 50.3 µg/mL) | > 150 µM | 7 µM (≈ 2.35 µg/mL) | 150 µM (≈ 50.3 µg/mL) |  |  |  |  |  | 
C[C@@H](Cc1ccccc1)NCc1ccccc1 [B217] |  |  | > 300 µM | > 300 µM |  |  | > 300 µM | > 150 µM |  | 
CC(CC1CCCCC1)NCc1ccccc1OCC(=O)NC(=O)NC1CCCC1 (centres unmarked) [B317] | 91 µM (≈ 37.8 µg/mL) | 55 µM (≈ 22.9 µg/mL) | 3 µM (≈ 1.25 µg/mL) | 91 µM (≈ 37.8 µg/mL) |  |  |  |  |  | 

Compound | MIC (A. baumannii; [1]) | MIC (H37RvMA; WT H37Rv MTB) | MIC (E. coli; [2]) | MIC (E. coli; [3]) | MIC (E. coli; [4]) | MIC (E. coli; [5]) | MIC (A. baumannii; [6]) | MIC (H37RvMA) | MIC (E. coli; read-out: MIC E. coli delta-TolC LB Media) | MIC (E. coli; read-out: MIC WT E. coli LB Media)
c1ccc2c(c1)CCN(CCC1CCCCC1)C2 [B417, 2-(2-cyclohexylethyl)-1,2,3,4-tetrahydroisoquinoline] |  |  |  |  | > 150 µM | > 150 µM | > 150 µM | > 150 µM |  | 
c1ccc(CNCCC2CC3CCC2C3)cc1 (centres unmarked) [B146] | 150 µM (≈ 34.4 µg/mL) | > 150 µM |  |  | 90 µM (≈ 20.6 µg/mL) | 150 µM (≈ 34.4 µg/mL) |  |  |  | 
CC(CC1CC1)NCc1ccccc1 (centres unmarked) [B34] | > 150 µM | > 150 µM |  |  | > 150 µM | > 150 µM |  |  |  | 
c1ccc(-c2ccc3ccccc3c2)c(CNCCC2CCCCC2)c1 [B234, 2-cyclohexyl-N-(2-(naphthalen-2-yl)benzyl)ethanamine hydrochloride] | 31 µM | 55 µM | 10 µM | > 300 µM |  |  |  |  |  | 
COc1ccc(OCCCOc2ccccc2CNC(C)CC2CCCCC2)cc1 (centres unmarked) [B271] | 55 µM (≈ 22.6 µg/mL) | 55 µM (≈ 22.6 µg/mL) | 3 µM (≈ 1.23 µg/mL) | 150 µM (≈ 61.7 µg/mL) |  |  |  |  |  | 
CC(CC1CCCCC1)NCc1ccccc1OCC1CNC(=O)O1 (centres unmarked) [B377] | 150 µM (≈ 52 µg/mL) | > 150 µM | 2.3 µM (≈ 0.797 µg/mL) | 75 µM (≈ 26 µg/mL) |  |  |  |  |  | 
COC(=O)c1ccc(COc2ccccc2CNC(C)CC2CCCCC2)o1 (centres unmarked) [B252] | 150 µM (≈ 57.8 µg/mL) | 150 µM (≈ 57.8 µg/mL) | 4 µM (≈ 1.54 µg/mL) | > 150 µM |  |  |  |  |  | 
CC(NCc1ccccc1)C1CCCCC1 (centres unmarked) [B134] | > 150 µM | > 150 µM |  |  | > 150 µM | 120 µM (≈ 26.1 µg/mL) |  |  |  | 
Cc1nonc1COc1ccccc1CNC(C)CC1CCCCC1 (centres unmarked) [B245] | 150 µM (≈ 51.5 µg/mL) | 150 µM (≈ 51.5 µg/mL) | 4 µM (≈ 1.37 µg/mL) | 150 µM (≈ 51.5 µg/mL) |  |  |  |  |  | 
CC(CC1CCCCC1)NCc1ccccc1CS(=O)(=O)NCC(=O)NCC(=O)O (centres unmarked) [B452, ((2-(((1-cyclohexylpropan-2-yl)amino)methyl)benzyl)sulfonyl)glycylglycine] | > 150 µM | > 150 µM |  |  | > 150 µM | > 150 µM |  |  |  | 
CC(NCc1ccccc1)C1CCCCCC1 (centres unmarked) [B101] | 150 µM (≈ 34.7 µg/mL) | > 150 µM |  |  | 40 µM (≈ 9.26 µg/mL) | 70 µM (≈ 16.2 µg/mL) |  |  |  | 
CCNC(=O)COc1ccccc1CNC(C)CC1CCCCC1 (centres unmarked) [B239] | > 150 µM | > 150 µM | 20 µM (≈ 6.65 µg/mL) | > 150 µM |  |  |  |  |  | 
CC(CC1CCCCC1)NCc1ccccc1OCc1ccc(F)cc1 (centres unmarked) [B408, 1-cyclohexyl-N-(2-((4-fluorobenzyl)oxy)benzyl)propan-2-amine] | 55 µM (≈ 19.6 µg/mL) | 12.2 µM (≈ 4.34 µg/mL) |  |  | 2 µM (≈ 0.711 µg/mL) | 55 µM (≈ 19.6 µg/mL) |  |  |  | 
COc1ccc2c(c1)[C@@H](NCc1ccccc1)CC2 [B209, (S)-N-benzyl-6-methoxy-2,3-dihydro-1H-inden-1-amine hydrochloride] | > 300 µM | > 150 µM | > 300 µM | > 300 µM |  |  |  |  |  | 
c1ccc(CNCCN2CCC3(CCCCC3)CC2)cc1 [B121] | > 150 µM | > 150 µM |  |  | > 150 µM | > 150 µM |  |  |  | 
CC(CC1CCCCC1)NCc1ccccc1CS(N)(=O)=O (centres unmarked) [B414, (2-(((1-cyclohexylpropan-2-yl)amino)methyl)phenyl)methanesulfonamide] | 150 µM (≈ 48.7 µg/mL) | > 150 µM |  |  | 4 µM (≈ 1.3 µg/mL) | 20 µM (≈ 6.49 µg/mL) |  |  |  | 
O=C1NCC(COc2ccccc2CNCCC2=CCCCC2)O1 (centres unmarked) [B402] | > 150 µM | > 150 µM |  |  | 33 µM (≈ 10.9 µg/mL) | 150 µM (≈ 49.6 µg/mL) |  |  |  | 
CC(CC1CCCCC1)NCc1ccccc1CS(=O)(=O)Nc1cccc(B(O)O)c1 (centres unmarked) [B457, (3-(((2-(((1-cyclohexylpropan-2-yl)amino)methyl)phenyl)methyl)sulfonamido)phenyl)boronic acid] | 33 µM (≈ 14.7 µg/mL) | > 55 µM |  |  | < 1 µM | 33 µM (≈ 14.7 µg/mL) |  |  |  | 
CC(CC1CCCCC1)NCc1ccccc1CCS(N)(=O)=O (centres unmarked) [B451, 2-(2-(((1-cyclohexylpropan-2-yl)amino)methyl)phenyl)ethane-1-sulfonamide] | 150 µM (≈ 50.8 µg/mL) | > 150 µM |  |  | 4 µM (≈ 1.35 µg/mL) | 55 µM (≈ 18.6 µg/mL) |  |  |  | 
CC(CC1CCCCC1)NCc1ccccc1OCC(=O)N1CCCC1 (centres unmarked) [B290] | > 150 µM | > 150 µM | 33 µM (≈ 11.8 µg/mL) | > 150 µM |  |  |  |  |  | 
